The values that follow are results of earlier work, collected in patent US20230191113A1, “METHOD AND APPARATUS FOR CANCER TREATMENT” (Minnesota Medical Physics LLC, priority 2020, published 2023).

The test system of series [1] is cancer tumors. The settings on record: cited from earlier work.
Series [2] deals with T1, A3 receptors (Homo sapiens, UniProt P0DMS8).
T1 sequence (P0DMS8 1-318): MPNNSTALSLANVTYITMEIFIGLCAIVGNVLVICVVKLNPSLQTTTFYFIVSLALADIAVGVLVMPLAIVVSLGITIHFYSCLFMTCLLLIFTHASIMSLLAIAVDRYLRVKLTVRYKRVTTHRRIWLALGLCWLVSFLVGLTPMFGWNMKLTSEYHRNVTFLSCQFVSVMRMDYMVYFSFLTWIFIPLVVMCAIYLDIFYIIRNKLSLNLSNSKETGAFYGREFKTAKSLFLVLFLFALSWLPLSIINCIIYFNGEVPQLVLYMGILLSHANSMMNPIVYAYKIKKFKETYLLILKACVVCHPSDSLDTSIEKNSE
The settings on record: allosteric enhancer added to A3AR agonist; cited from earlier work.

Molecules are shown by their SMILES.

With `CNC(=O)[C@H]1O[C@@H](n2cnc3c(NCc4cccc(I)c4)nc(Cl)nc32)[C@H](O)[C@@H]1O` [CL-IB-MECA], in series [1] (CL-IB-MECA plus one-dimensional EFS), the “increase of the apoptotic rate by one-dimensional EFS” value is reported as 0.4 factor. In addition, the “effect on growth of cancer tumors” value in series [1] (multiple studies, significant dose of A3AR agonist alone) was “slowed down the growth of cancer tumors”.

In the case of `Clc1ccc(Nc2nc3ccccc3c3nc(C4CCCCC4)[nH]c23)cc1Cl` [LUF6000], in series [2], the “increase of the maximum efficacy of A3 receptors agonists” value was 45%.
